Measured values: patent US20090088482A1, “Compositions and Methods For Treating Heart Failure” (The Trustees Of Columbia University In The City New York, priority 2003, published 2009)

What was measured:
Type in all cases: in vivo, Sprague-Dawley rats
[1] = test system: rats with HF induced by LAD ligation; assay: Body weight and heart weight in LAD ligation ischemic HF rats (Example 5); conditions: mean ± SD, 9 weeks oral therapy; for Heart Wt: HF 2.16 ± 0.33, Sham 1.72 ± 0.09; for % Δ Weight (percentage change in pre-treatment to post-treatment weights): clenbuterol 1 mg/kg/day, metoprolol 200 mg/kg/day, HF 33.8 ± 4.79, Sham 76.1 ± 19.3
Method: All studies were performed in compliance with the Guide for the Care and Use of Laboratory Animals (NRC 1996) and were approved by the Institutional Animal Care and Use Committee of Columbia University. Sprague-Dawley rats (Charles River Laboratories, Wilmington, Mass.) weighing 250 to 300 g were used for all experiments. Food and water were provided ad libitum, with rats housed in a light- and temperature-controlled room over the 12-week study period.
After the induction of general anesthesia with the use of intraperitoneal ketamine (75 mg/kg; Fort Dodge Animal Health, Fort Dodge, Iowa) and xylazine (5 mg/kg; Lloyd Laboratories, Shenandoah, Iowa), endotracheal intubation with a 16-guage angiocathether was performed. Rats were supported by a small animal ventilator (Harvard Apparatus, Holliston, Mass.). After performing a left thoracotomy, a sham operation (pericardiectomy only) or left anterior descending artery (LAD) ligation with a 7-0 polypropylene suture was performed. Subsequently, a chest tube (16-guage angiocathether) was placed in the left pleural space prior to closing the incision in three layers. Finally, the chest tube was used to aspirate the pleural cavity and removed after extubation.
(§1) A total of 69 rats were used in this study. LAD ligation surgery was performed in 60 rats, of which 37 (62%) survived three weeks post-surgery. Another 9 rats underwent a sham operation (group Sham), with 7 (78%) survivors. Three weeks post-operatively, echocardiography was performed to establish the baseline level of HF (as measured by fractional shortening). The LAD ligation rats were divided into 4 treatment groups matched for the degree of HF and were randomly assigned to one of the following therapies for 9 additional weeks: (1) rats receiving no therapy (group HF, n=9); (2) rats receiving high-dose clenbuterol at 1 mg/kg/day (group Clen, n=9); (3) rats receiving high-dose metoprolol at 200 mg/kg/day (group Meto, n=9); or (4) rats receiving concurrent high-dose clenbuterol at 1 mg/kg/day and high-dose metoprolol therapy at 200 mg/kg/day (group Clen+Meto, n=10).
Clenbuterol (ICN Biomedicals, Aurora, Ohio) was sonicated and subsequently dissolved in the drinking water. Metoprolol (Sigma-Aldrich, St. Louis, Mo.) was dissolved in the drinking water either alone or in combination with clenbuterol for the Clen+Meto group. The concentrations of clenbuterol and metoprolol were varied to keep the study drug dose delivered within a narrow therapeutic window based on daily water consumption. […]
Body weight was measured pre-surgery and 3 and 12 weeks post-surgery. Heart weight was measured immediately after the heart was excised. The ratio of body weight to heart weight was subsequently calculated.

[2] = test system: myocytes (TUNEL, 8-oxoG, MYH, OGG1 staining); assay: Quantitative immunohistochemistry staining of apoptosis, DNA damage and DNA repair markers (Example 5); conditions: mean ± SD; for 8-oxoG: DNA damage product, HF 18 ± 4, Sham 0.5 ± 0.1; for OGG1: DNA repair marker, HF 0.5 ± 0.1, Sham 0.2 ± 0.1; for TUNEL: percentage of myocytes with nuclear staining, HF 21 ± 4, Sham 0.5 ± 0.1; for MYH (score): score 0 = 0%, 1 = 0-15%, 2 = 15-30%, 3 = 30-50%, 4 = >50% positive, HF 1.4 ± 0.5, Sham 0.6 ± 0.2
Method: as §1
A short-axis section of the heart at the point of maximal infarction was fixed in 4% paraformaldehyde solution for 12 hours. Sections were then embedded in paraffin and 5 μm slices used for trichrome staining. The infarct size was determined as a percentage of the LV circumference under light microscopy by a single individual (S.X.) blinded to group assignment. The remaining heart tissue was flash-frozen in liquid nitrogen and stored at −80° C. for Western blot analysis.
Histological sections (5 μm thick) were used to perform immunohistochemistry for: terminal deoxynucleotidyltransferase end labeling (TUNEL; apoptosis marker), 8-oxoG (DNA damage product), MYH (DNA mismatch repair enzyme), and OGG1 (DNA base excision repair enzyme). The percentage of myocytes with nuclear staining was quantified in a blinded manner. Because OGG1 is found both in the nucleus and cytoplasm, a scoring system was utilized to semi-quantitatively describe the staining observed: 0=no staining; 1=0 to 15% staining; 2=15 to 30% staining; 3=30 to 50% staining; and 4=>50% staining of the nucleus and cytoplasm.

[3] = test system: rats with HF induced by LAD ligation; assay: Ex vivo end-diastolic pressure-volume relationships (EDPVR) (Example 5); conditions: for passive LV Volume at 30 mmHg, normalized for heart weight: ex vivo EDPVR, HF 0.50, Sham 0.36
Method: as §1
An 18-gauge angiocatheter was placed into the LV through the aortic valve and connected to a three-way stopcock. A fine hemostat was placed on the atrial side of the mitral annulus to seal the LV. After eliminating any air from the system, LV pressures were measured using a […] Millar micromanometer introduced through the angiocatheter. While recording LV pressure using an analog-to-digital conversion reading system (Chart 4, version 4.2.4; ADInstruments, Colorado Springs, Colo.), saline was infused into the LV cavity in 50 μL increments using a calibrated 1 mL syringe. The infused fluid was withdrawn and measured to ensure that no leakage had occurred. Data was utilized only if >95% of the injected volume was recovered. Using commercial software (Igor Pro, version 4.0.5.1; WaveMetrics, Lake Oswego, Oreg.), values of LV pressure (P) and volume (V) were fitted according to the equation: […]
where β is the base constant and α is an index of ventricular stiffness, as previously described (Mirsky I. Assessment of passive elastic stiffness of cardiac muscle: mathetical concepts, physiologic and clinical considerations, directions of future research. Prog Cardiovasc Dis. 1976; 18:277-308). […]

Row | Compound | Heart Wt [1] | % Δ Weight (percentage change in pre-treatment to post-treatment weights) [1] | 8-oxoG [2] | OGG1 [2] | TUNEL [2] | MYH (score) [2] | passive LV Volume at 30 mmHg, normalized for heart weight [3] | shift of EDPVR curve versus Sham rats ([3]; ex vivo, normalized for heart weight)
1 | COCCc1ccc(OCC(O)CNC(C)C)cc1 (stereo not drawn) [Meto, metoprolol] | 2.17 ± 0.34 gm | 32.3 ± 7.16 % | 12 ± 3 † % | 6.4 ± 1.5 † % | 12 ± 4 † % | 2.6 ± 0.4 † score | 0.51 mL/gm of heart weight | rightward shift
2 | CC(C)(C)NCC(O)c1cc(Cl)c(N)c(Cl)c1 (stereo not drawn) [Clen, clenbuterol] | 2.64 ± 0.41 § † gm | 49.9 ± 7.18 † % | 10 ± 2 † % | 8.2 ± 2.2 † % | 11 ± 3 † % | 2.8 ± 0.5 † score | 0.42 mL/gm of heart weight | 
